Read-outs that look alike come from different tables or passages of the source.
What was measured:
Vero E6 cells = experiment: Cytotoxicity, trypan blue exclusion method; conditions: for Reduction of cytotoxicity compared to base 7: ribosylation / deoxyribosylation of base 7
Description: (§1) Cytotoxicity was determined quantitatively by the trypan blue exclusion method. […] Negative control wells contained cells with maintenance medium.
(§2) After 72 h of cell culture incubation in the presence of a compound at a known concentration, the culture medium was harvested, the cells were treated with Versene solution, and suspended in the previously removed support medium. The resulting cell suspension was combined with 1% trypan blue solution in a ratio of 1:1. The number of live and stained cells was determined using a Goryaev camera (Minimed, Bryansk, Russia).

[1] = target: T1, E. coli purine nucleoside phosphorylase (PNP) (Escherichia coli, UniProt P0ABP8); experiment: Test reaction for 2-deoxyriboside synthesis (substrate test, HPLC); assay type: biochemical; conditions: for Deoxyriboside Content, % 1 h / Deoxyriboside Content, % 24 h: 1 mM base, 2 mM 2′-deoxyuridine, 10 mM KH2PO4, pH 7.0, 5.6 units PNP, 1.7 units UP, 50 °C; for Substrate of E. coli PNP (product formation according to HPLC): test reaction with 2′-deoxyuridine, PNP and UP
T1 construct: made in house; host or cells: E. coli ER2566
Description: Each reaction mixture (0.25 mL, pH 7.0) contained 1 mM of the tested heterocyclic base, 2 mM 2′-deoxyuridine, 10 mM KH2PO4, and Escherichia coli purine nucleoside phosphorylase (5.6 units) and uridine phosphorylase (1.7 units). An activity unit is the amount (in µmol) of natural product (hypoxanthine or uracil) formed per minute. The reaction mixtures were incubated at 50 °C. Substrate and product quantities were determined using HPLC.
The test reactions contained the tested heterocyclic base, 2′-deoxyuridine, and both enzymes (PNP and UP).

HSV-1/L2(TK+) = experiment: microbe, parasite or virus in culture
Description: (§3) Herpes simplex virus type 1 (HSV-1) strain L2 was obtained from the State’s collection of viruses at FSBI «N. F. Gamaleya National Research Centre for Epidemiology and Microbiology, Russian Ministry of Health, Russia» («D. I. Ivanovsky Institute of Virology» subdivision).
(§4) Antiviral activity in vitro was measured by the method of the cytopathic effect (CPE) inhibition assay. In 96-well plastic plates with the 24 h generated cell monolayer, 2-fold serial dilutions of the compounds were prepared. Cells infected with MOI of 0.1 PFU/cell were incubated at 37 °C in 5% CO2 atmosphere. […] Antiviral activity was assessed by determining of IC50 and IC95.
(§5) Three controls were used: (1) Toxicity control. Uninfected cells were incubated in the presence of the drug in the same concentration range as in the experiment. (2) Virus control. […] (3) Cell control. Uninfected cell cultures were incubated in the maintenance medium, which contained no drug.

HSV-1/L2/R^ACV = experiment: microbe, parasite or virus in culture
Description: as §3, §4, §5

[2] = Cytotoxicity, trypan blue exclusion method; conditions: African green monkey
Description: as §1, §2

FLT-3 = test system: FLT-3; parameters: method as in earlier work; conditions: cited from earlier work
AURORA-A = test system: AURORA-A; parameters: method as in earlier work; conditions: cited from earlier work
c-TAK1 = test system: c-TAK1; parameters: method as in earlier work; conditions: cited from earlier work
[3] = Strain HSV-1/L2(TK+), Vero E6, MOI 0.1 PFU/cell, 48 h
[4] = Strain HSV-1/L2/R^ACV, Vero E6, MOI 0.1 PFU/cell, 48 h
[5] = Vero E6 cells, 72 h, trypan blue
[6] = Vero E6 cells, CC50, Vero E6 cells, 72 h, trypan blue
[7] = Human alphaherpesvirus 1, Vero C1008, 48 h
[8] = Human alphaherpesvirus 1, Vero C1008, 48 h, Strain HSV-1/L2(TK+), Vero E6, MOI 0.1 PFU/cell, 48 h

T1 sequence (P0ABP8 2-239): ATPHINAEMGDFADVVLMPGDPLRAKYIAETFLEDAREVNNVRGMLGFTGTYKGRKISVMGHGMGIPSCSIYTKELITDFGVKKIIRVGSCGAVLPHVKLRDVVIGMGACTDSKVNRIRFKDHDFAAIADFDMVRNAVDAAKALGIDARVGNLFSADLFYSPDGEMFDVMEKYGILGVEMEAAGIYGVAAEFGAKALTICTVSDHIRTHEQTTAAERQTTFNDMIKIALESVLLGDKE

Compound	Deoxyriboside Content, % 1 h [1] [%]	Deoxyriboside Content, % 24 h [1] [%]	Substrate of E. coli PNP (product formation according to HPLC) [1]	SI (ratio of CC50 to IC50) (HSV-1/L2(TK+); Strain HSV-1/L2(TK+))	IC50 (HSV-1/L2(TK+); [3]) [µM]	SI (ratio of CC50 to IC50) (HSV-1/L2/R^ACV; Strain HSV-1/L2/R^ACV)	CC50 at 72 h [2, 6] [µM]	IC95 (HSV-1/L2(TK+); [7]) [µM]	IC50 (HSV-1/L2(TK+); [8]) [µM]	IC50 (HSV-1/L2/R^ACV; [7]) [µM]	IC95 (HSV-1/L2/R^ACV; [7]) [µM]	other results
1,2,4-Triazole-3-thione [Compound 3]	0	0	did not prove to be substrates	3	618 ± 3.7	3						CC50 (Vero E6 cells): 1885.7 ± 1.7 µM; IC95 (HSV-1/L2(TK+); [3]): >1236.0 µM; IC50 (HSV-1/L2/R^ACV; [4]): 618 ± 3.7 µM; IC95 (HSV-1/L2/R^ACV; [4]): >1236.0 µM
5-Phenyl-1,2,4-triazole-3-thione [Compound 4]	0	0	did not prove to be substrates		2821 ± 25.4							CC50 (Vero E6 cells): > 5640 µM; CC50 (Vero E6 cells; [5]): > 5640 µM; IC95 (HSV-1/L2(TK+); [3]): >5642.4 µM; IC50 (HSV-1/L2/R^ACV; [4]): 2821 ± 25.4 µM; IC95 (HSV-1/L2/R^ACV; [4]): >5642.4 µM
O=C(CSc1nnc[nH]1)c1ccccc1 [Compound 5, 3-Phenacylthio-1,2,4-triazole]	94	25	product’s formation was observed	6		6	3346 ± 26.5	2280 ± 20.5	570.1 ± 5.1	570.1 ± 5.1	2280 ± 20.5	
CCCCSc1n[nH]c(-c2ccccc2)n1 [Compound 7, 3-Butylthio-5-phenyl-1,2,4-triazole]	62	41	product’s formation was observed	3	33.5 ± 0.4	1	91.1	> 67	33.5	67 ± 0.8	> 67	Increase of toxicity compared to base 4 (Vero E6 cells; CC50 91.07 vs. 5642.39 µM): 62 fold; CC50 (Vero E6 cells; [5]): 91.1 ± 0.7 µM; Activity against kinase FLT-3 (FLT-3): active; Activity against kinase AURORA-A (AURORA-A): active; Activity against kinase c-TAK1 (c-TAK1): active
O=C(CSc1ncn([C@@H]2O[C@H](CO)[C@@H](O)[C@H]2O)n1)c1ccccc1 [Compound 8, 3-Phenacylthio-1-(β-D-ribofuranosyl)-1,2,4-triazole]				>8		>8	> 3030	1520 ± 45.8	379 ± 11.4	379 ± 11.4	3030 ± 91.5	
O=C(CSc1ncn([C@H]2C[C@H](O)[C@@H](CO)O2)n1)c1ccccc1 [Compound 9, 1-(2-Deoxy-β-D-ribofuranosyl)-3-phenacylthio-1,2,4-triazole]				2		2	920 ± 77.2	835 ± 51.8	418 ± 25.9	418 ± 25.9	835 ± 51.8	
O=C(CSc1nc(-c2ccccc2)nn1[C@@H]1O[C@H](CO)[C@@H](O)[C@H]1O)c1ccccc1 [Compound 10, 5-Phenacylthio-3-phenyl-1-(β-D-ribofuranosyl)-1,2,4-triazole]				3		2	480 ± 6.2	305 ± 8.8	152 ± 4.4	305 ± 8.8	305 ± 8.8	
O=C(CSc1nc(-c2ccccc2)nn1[C@H]1C[C@H](O)[C@@H](CO)O1)c1ccccc1 [Compound 11, 1-(2-Deoxy-β-D-ribofuranosyl)-5-phenacylthio-3-phenyl-1,2,4-triazole]				2		2	244 ± 6.2	149 ± 5.1	149 ± 5.1	149 ± 5.1	149 ± 5.1	
CCCCSc1nc(-c2ccccc2)nn1[C@@H]1O[C@H](CO)[C@@H](O)[C@H]1O [Compound 12, 5-Butylthio-3-phenyl-1-(β-D-ribofuranosyl)-1,2,4-triazole]				4		4	657	375 ± 6.4	188 ± 3.2	188 ± 3.2	375 ± 6.4	CC50 (Vero E6 cells; [5]): 658 ± 13.9 µM; Reduction of cytotoxicity compared to base 7 (Vero E6 cells): more than 7 times; Decrease of antiviral activity compared to base 7 (HSV-1/L2(TK+); IC50 based): 6 fold
CCCCSc1nc(-c2ccccc2)nn1[C@H]1C[C@H](O)[C@@H](CO)O1 [Compound 13, 5-Butylthio-1-(2-deoxy-β-D-ribofuranosyl)-3-phenyl-1,2,4-triazole]				16	23.4 ± 0.6	8	364 ± 6	93.8 ± 2.4	23.4	46.9 ± 1.2	93.8 ± 2.4	Reduction of cytotoxicity compared to base 7 (Vero E6 cells): 4 times
NC(=O)c1ncn([C@@H]2O[C@H](CO)[C@@H](O)[C@H]2O)n1 [Ribavirin, reference compound]								> 2050	512 ± 20	1020 ± 39.9	> 2050	CC50 at 72 h [2]: > 2050 µM

— article PMC11274511, “Synthesis of Substituted 1,2,4-Triazole-3-Thione Nucleosides Using E. coli Purine Nucleoside Phosphorylase” (Biomolecules, 2024)
